Data on one molecule can be found in patent publication US11360104B2, “Microbial-based biosensors” (TRUSTEES OF BOSTON UNIVERSITY, priority 2017, dated 2022).

Test [1] concerns the target Pimelobacter simplex PinR (AIY20223.2; SEQ ID NO: 1), his-tagged (AIY-his6). Description: QD-FRET steroid sensor (QD-PinR + DNA-Cy5), steroid-induced TF-DNA unbinding. Type of test: biochemical. On the procedure: Fluorescent spectra were analyzed using MATLAB (Mathworks) and were fitted with a sum of 2 Gaussians (D=QD: FWHM=27 nm, λmax=607 nm; A=DNA-Cy5: FWHM=40 nm, λmax=669 nm). The area of each Gaussian was extracted and FD and FA are obtained respectively for the fluorescence of QD (donor) and Cy5 (acceptor).
Raw dose-response curves were obtained by plotting FA/FD as a function of the steroid concentration. Sensor output is the normalization of the fluorescent spectra of the donor and acceptor according to the following equation: […]
Non-normalized dose-response were fitted with Origin Pro 8 software with the non-linear equation: […]
The cross-reactivity of progesterone regarding the different steroids was calculated with the following equation: […]
CdSe/CdS/ZnS QDs were coated with a zwitterionic polymer bearing histamine anchoring functions (P1, SI). Once the hydrophobic QDs were transferred into H2O using a biphasic ligand exchange, his-tagged TFs were self-assembled on the QD surface to produce the QD-TF. Addition of the double stranded, Cy5-labeled TF-binding sequence completed probe assembly as the oligo binds to the TF in the absence of progesterone (PRG). The molar ratios of the QD, TF, and DNA in the sensor were controlled through the stoichiometric ratios of the mixed parts.
Two fluorescent spectra were recorded, one from the QDs and one from the Cy5 due to the FRET.
First, the DNA1 (most binding sequence) has been used to build the first biosensor, named sensor 1. For this sensor, a ratio of QD/TF/DNA of 1/4/18 was chosen. […] In order to homogenize the fluorescent signals in between batches and different sensor variations, FA/FD was normalized to give the signal output. Signal output is then plotted against PRG concentration to give a dose-response curve (FIG. 9C) This curve was fitted with the non-linear equation XX to obtain the half-maximal inhibitory concentration (IC50) (Table 13).
Description for a typical experiment, using a molar ratio of QD/TF/DNA=1/4/18. QDs in (275 uL, 0.15 uM in HEPES 1×, pH 7.6 with 1% BSA) were mixed with AIY-his6 (275 uL, 0.6 uM in HEPES 1× pH 7.6) at room temperature for 45 min. Then, the double-stranded DNA labelled with a Cy5 fluorescent probe at the 3′ and 5′ ends (275 uL, 2.7 uM in HEPES 1× pH 7.6) was added to the mixture. After 30 min, 220 uL of HEPES 1× pH 7.5 and 330 uL of 5× binding buffer (25 mM MgCl2, 25% glycerol, and 250 mg/L Invitrogen™ UltraPure™ Salmon Sperm DNA in Tris-HCl 0.1M) were added and the mixture is left 15 more min at RT.
50 uL of the sensor (QD/TF/DNA) was then splitted in 3×9 centrifuge tubes to which 10 uL of progesterone at the desired concentration is added. As such, the final concentration of QD/TF/DNA for the measurements is 25 nM/100 nM/450 nM. A 384 well plate was filled with 60 uL of each solution. The fluorescence intensity was monitored on a spectrofluorimeter from 535 nm to 800 nm exciting at 400 nm, equipped with a 450 nm long-pass filter in emission.

In another test the target is PinR (Nocardioides simplex (Pimelobacter simplex), UniProt A0A0A1DUF2). The test can be described thus: Cross-reactivity assay of steroids using sensor 3. It counts as biochemical. As to the method: The cross-reactivity of progesterone regarding the different steroids was calculated with the following equation:
Description for a typical experiment, using a molar ratio of QD/TF/DNA=1/4/18.
50 uL of the sensor (QD/TF/DNA) was then splitted in 3×9 centrifuge tubes to which 10 uL of progesterone at the desired concentration is added. […] A 384 well plate was filled with 60 uL of each solution. The fluorescence intensity was monitored on a spectrofluorimeter from 535 nm to 800 nm exciting at 400 nm, equipped with a 450 nm long-pass filter in emission.

Structures are written as SMILES. Where two headings read alike, the source gives them in different places.

PinR, sequence (A0A0A1DUF2 entry or part of it): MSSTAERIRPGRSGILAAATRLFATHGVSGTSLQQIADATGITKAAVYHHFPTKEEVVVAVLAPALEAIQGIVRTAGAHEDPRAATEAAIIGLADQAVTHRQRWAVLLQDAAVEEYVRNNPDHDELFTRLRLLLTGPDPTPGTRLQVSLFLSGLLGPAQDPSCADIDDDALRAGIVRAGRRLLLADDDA

Turning to `CC(=O)[C@H]1CC[C@H]2[C@@H]3CCC4=CC(=O)CC[C@]4(C)[C@H]3CC[C@]12C` [PRG, Progesterone], the IC50 in test [1] (DNA1, QD/TF/DNA 1/4/18, read-out: X0) stood at 460 ± 20 nM; in test [1] (DNA2, QD/TF/DNA 1/4/18, read-out: X0), 370 ± 10 nM; in test [1] (DNA 3, QD/TF/DNA 1/1/2, read-out: X0), 210 nM; in test [1] (DNA 3, QD/TF/DNA 1/1/18, read-out: X0), 350 nM; in test [1] (DNA 3, QD/TF/DNA 1/2/2, read-out: X0), 270 nM; in test [1] (DNA 3, QD/TF/DNA 1/2/18, read-out: X0), 410 nM. Also, the IC50 is 200 nM in test [1] (DNA 3, QD/TF/DNA 1/4/2, read-out: X0); 290 nM in test [1] (DNA 3, QD/TF/DNA 1/4/18 (Table 11), read-out: X0); 290 ± 20 nM in test [1] (DNA3, QD/TF/DNA 1/4/18, read-out: X0); 390 nM in test [1] (DNA 3, QD/TF/DNA 1/10/18, read-out: X0); 440 nM in test [1] (DNA 3, QD/TF/DNA 1/16/18, read-out: X0); 49 ± 12 nM in test [1] (DNA 4, QD/TF/DNA 1/1/4, read-out: X0). The IC50 in test [1] (DNA 4, QD/TF/DNA 1/1/18, read-out: X0) turned out to be 74 ± 18 nM; in test [1] (DNA 4, QD/TF/DNA 1/4/9, read-out: X0), 140 ± 14 nM; in test [1] (DNA 4, QD/TF/DNA 1/4/18 (Table 12), read-out: X0), 150 ± 12 nM; in test [1] (DNA4, QD/TF/DNA 1/4/18, read-out: X0) it was 150 ± 10 nM; in test [1] (DNA 4, QD/TF/DNA 1/16/8, read-out: X0) it was 380 ± 16 nM; in test [1] (sensor 2 (DNA 2, QD/TF/DNA=1/4/18), read-out: IC50), 133 ± 9 nM. For the same molecule, the IC50 amounted to 57 ± 3 nM in test [1] (sensor 3 (DNA 2, QD/TF/DNA=1/1/18), read-out: IC50) and 59 ± 4 nM at PinR. Moreover, at PinR (sensor 3, HEPES 1×), the “P (slope of fit)” value is listed as 1.31 ± 0.10.
